The target of experiment [1] is T1, Proto-oncogene tyrosine-protein kinase Src (Homo sapiens, UniProt P12931). Description: Inhibition of c-Src after 60 mins.
Experiment [2] concerns the target T1, Proto-oncogene tyrosine-protein kinase Src. The experiment is described as follows: Inhibition of c-Src at 75 uM after 60 mins.
For experiment [3], the target named is Epidermal growth factor receptor (Homo sapiens, UniProt P00533). Description: Inhibition of human EGFR.
The target of experiment [4] is Tyrosine-protein kinase Lck (Homo sapiens, UniProt P06239). The experiment is described as follows: Inhibition of human activated Lck.
Experiment [5] concerns the target Tyrosine-protein kinase CSK (Homo sapiens) (UniProt P41240). The experiment is described as follows: Inhibition of human Cck.

This passage reports IC50 and inhibition results from ChEMBL document CHEMBL1641405, “Click chemistry inspired one-pot synthesis of 1,4-disubstituted 1,2,3-triazoles and their Src kinase inhibitory activity” (Bioorg Med Chem Lett, 2011).

The structures appear in SMILES notation. Where only a bound is given, the exact number is not on record here.

T1 sequence (P12931 2-536 limits assumed): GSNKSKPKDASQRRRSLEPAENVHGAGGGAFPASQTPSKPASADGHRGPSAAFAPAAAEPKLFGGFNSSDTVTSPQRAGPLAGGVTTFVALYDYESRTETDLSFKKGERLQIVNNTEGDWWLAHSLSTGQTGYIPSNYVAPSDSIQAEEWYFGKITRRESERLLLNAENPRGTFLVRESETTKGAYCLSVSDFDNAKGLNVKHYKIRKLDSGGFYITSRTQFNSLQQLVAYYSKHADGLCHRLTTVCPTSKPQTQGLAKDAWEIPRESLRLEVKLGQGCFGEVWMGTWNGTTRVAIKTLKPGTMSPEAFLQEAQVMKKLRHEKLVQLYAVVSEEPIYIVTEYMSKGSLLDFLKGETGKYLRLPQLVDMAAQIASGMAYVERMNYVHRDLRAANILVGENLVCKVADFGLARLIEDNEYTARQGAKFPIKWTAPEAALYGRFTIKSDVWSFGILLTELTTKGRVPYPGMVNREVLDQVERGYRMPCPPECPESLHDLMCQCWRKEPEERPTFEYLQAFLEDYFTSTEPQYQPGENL
Tyrosine-protein kinase CSK (Homo sapiens), sequence (P41240 whole entry, looked up): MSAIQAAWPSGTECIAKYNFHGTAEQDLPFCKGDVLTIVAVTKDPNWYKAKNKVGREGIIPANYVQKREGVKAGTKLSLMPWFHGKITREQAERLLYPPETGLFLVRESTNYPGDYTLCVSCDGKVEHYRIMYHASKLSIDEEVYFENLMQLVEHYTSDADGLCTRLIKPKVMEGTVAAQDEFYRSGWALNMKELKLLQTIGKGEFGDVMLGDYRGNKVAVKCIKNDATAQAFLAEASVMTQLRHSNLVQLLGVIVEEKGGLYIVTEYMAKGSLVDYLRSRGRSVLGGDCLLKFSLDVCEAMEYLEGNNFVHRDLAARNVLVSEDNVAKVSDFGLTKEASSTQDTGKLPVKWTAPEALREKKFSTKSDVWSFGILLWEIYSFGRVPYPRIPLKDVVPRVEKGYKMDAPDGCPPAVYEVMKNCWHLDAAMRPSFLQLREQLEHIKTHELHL
Epidermal growth factor receptor, sequence (P00533 whole entry): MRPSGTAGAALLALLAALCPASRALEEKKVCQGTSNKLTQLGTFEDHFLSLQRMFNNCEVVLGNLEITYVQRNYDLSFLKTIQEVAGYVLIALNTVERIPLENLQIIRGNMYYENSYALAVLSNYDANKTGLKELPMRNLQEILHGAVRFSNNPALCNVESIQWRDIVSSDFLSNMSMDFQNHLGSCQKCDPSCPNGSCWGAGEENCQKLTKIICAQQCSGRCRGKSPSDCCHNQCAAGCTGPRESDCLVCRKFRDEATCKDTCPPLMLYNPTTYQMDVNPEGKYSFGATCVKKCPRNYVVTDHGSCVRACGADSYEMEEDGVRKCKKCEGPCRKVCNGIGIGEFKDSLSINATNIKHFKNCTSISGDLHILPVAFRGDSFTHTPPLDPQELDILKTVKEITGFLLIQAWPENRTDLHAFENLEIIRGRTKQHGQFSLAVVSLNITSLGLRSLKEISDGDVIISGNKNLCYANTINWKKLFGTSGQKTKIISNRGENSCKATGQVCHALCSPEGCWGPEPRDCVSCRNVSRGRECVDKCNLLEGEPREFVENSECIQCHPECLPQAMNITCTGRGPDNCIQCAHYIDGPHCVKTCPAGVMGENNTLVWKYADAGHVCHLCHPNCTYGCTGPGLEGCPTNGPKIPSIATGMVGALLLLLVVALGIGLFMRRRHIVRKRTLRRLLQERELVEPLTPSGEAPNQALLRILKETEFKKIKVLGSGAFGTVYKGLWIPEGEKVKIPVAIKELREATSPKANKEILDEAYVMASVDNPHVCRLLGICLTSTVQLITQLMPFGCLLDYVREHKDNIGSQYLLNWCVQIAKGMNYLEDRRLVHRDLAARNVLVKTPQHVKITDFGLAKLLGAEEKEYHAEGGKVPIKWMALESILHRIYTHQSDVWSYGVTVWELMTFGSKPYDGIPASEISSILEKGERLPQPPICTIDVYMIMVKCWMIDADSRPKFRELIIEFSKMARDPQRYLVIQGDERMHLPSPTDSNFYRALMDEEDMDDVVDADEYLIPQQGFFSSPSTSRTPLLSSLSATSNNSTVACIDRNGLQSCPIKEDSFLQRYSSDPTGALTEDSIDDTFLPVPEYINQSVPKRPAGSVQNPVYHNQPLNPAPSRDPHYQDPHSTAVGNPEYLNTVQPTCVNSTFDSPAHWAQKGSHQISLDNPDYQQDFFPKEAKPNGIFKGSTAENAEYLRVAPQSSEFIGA
Tyrosine-protein kinase Lck, sequence (P06239 whole entry): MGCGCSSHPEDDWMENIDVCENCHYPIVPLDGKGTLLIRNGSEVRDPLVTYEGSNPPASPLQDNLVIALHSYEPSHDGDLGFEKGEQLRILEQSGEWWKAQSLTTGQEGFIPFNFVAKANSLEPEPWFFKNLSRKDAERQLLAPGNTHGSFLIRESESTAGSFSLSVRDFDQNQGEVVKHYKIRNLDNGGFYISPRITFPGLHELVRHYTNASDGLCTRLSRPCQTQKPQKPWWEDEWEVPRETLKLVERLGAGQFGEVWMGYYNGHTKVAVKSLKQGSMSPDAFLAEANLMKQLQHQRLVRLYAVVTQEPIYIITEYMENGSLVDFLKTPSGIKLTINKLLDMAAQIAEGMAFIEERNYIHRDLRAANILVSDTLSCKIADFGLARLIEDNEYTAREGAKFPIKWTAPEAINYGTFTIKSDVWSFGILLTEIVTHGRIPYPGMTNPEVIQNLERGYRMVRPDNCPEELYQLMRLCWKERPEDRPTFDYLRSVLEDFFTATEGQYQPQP

As usually defined, the IC50 is the concentration at which inhibition is half-maximal. Low values mean higher potency, high ones lower potency. `O=C(Cn1cc(-c2ccccc2)nn1)c1cccs1` gave an IC50 in experiment [1] of 32.5 µM. In experiment [1], `Cc1ccc(C(=O)Cn2cc(-c3ccc(C)cc3)nn2)cc1` came in with an IC50 of 49.8 µM.

Compound `Cc1ccc(-c2cn(C3CCCC3=O)nn2)cc1` (configuration not stated) came in with an IC50 in experiment [1] of 62.1 µM. This IC50 and that of the compound before are within 1.5-fold of each other. The same measure, in the same setting: for `Cc1ccc(C(=O)Cn2cc(-c3ccc(F)c(C)c3)nn2)cc1` the value was 82.3 µM. For orientation: inhibition means how much of the control response was suppressed. In experiment [2], `O=C1CCCCC1n1cc(-c2ccc(F)cc2)nn1` (configuration not stated) displayed an inhibition of under 10%. On the same count and under the same terms, with `COc1ccc(-c2cn(CC(=O)c3ccc(Cl)cc3)nn2)cc1` the figure was under 10%; with `COc1ccc(-c2cn(C3CCCC3=O)nn2)cc1` (configuration not stated), under 10%; with `O=C1CCCC(n2cc(-c3ccccc3)nn2)C1` (configuration not stated), under 10%.

In the case of `COc1ccc(-c2cn(C3CCCCC3=O)nn2)cc1` (configuration not stated), the inhibition in experiment [2] was under 10%. Consider `O=C(Cn1cc(-c2ccsc2)nn1)c1ccc(Cl)cc1`, for which the 50% inhibitory concentration (IC50) in experiment [1] was over 150 µM. The same measure, in the same setting: with `O=C(/C=C/c1ccccc1)Cn1cc(-c2ccccc2)nn1` the figure was over 100 µM. In experiment [2], `Cc1ccc(-c2cn(CC(=O)c3ccc(Br)cc3)nn2)cc1` returned an inhibition of under 10%. Still for that read-out and setting: with `O=C1CCCC1n1cc(-c2ccsc2)nn1` (configuration not stated) the figure was under 10%.

In experiment [1], `Cc1ccc(-c2cn(CC(=O)c3ccccc3)nn2)cc1` came in with an IC50 of 41.6 µM. With `Cc1cc(-c2cn(CC(=O)c3ccccc3)nn2)ccc1F`, in experiment [1], the IC50 came out at 81 µM. On the same count and under the same terms, for `CCNC(=O)Cn1cc(-c2ccccc2)nn1` the value was over 150 µM. `O=C(Cn1cc(CCCCCl)nn1)c1ccc(Br)cc1` showed an IC50 in experiment [1] of over 100 µM. `O=C(Cn1cc(-c2ccc(F)cc2)nn1)c1ccc(Cl)cc1` displayed an inhibition in experiment [2] of under 10%.

For the compound `Cc1ccc(-c2cn(C3CCCCC3=O)nn2)cc1` (configuration not stated), the IC50 in experiment [1] is 33.9 µM; in experiment [3], over 100 µM; in experiment [4], over 100 µM; in experiment [5] it was over 100 µM. For the compound `O=C(Cn1cc(-c2ccccc2)nn1)c1ccccc1`, in experiment [1], the IC50 is over 100 µM. In experiment [2], `O=C1CCC(n2cc(-c3ccccc3)nn2)C1` (configuration not stated) showed an inhibition of under 10%. Compound `Cc1ccc(-c2cn(C3CCCCCC3=O)nn2)cc1` (configuration not stated) returned an IC50 in experiment [1] of 66.1 µM. Same read-out and setting: with `CC(=O)Cn1cc(-c2ccc(C)cc2)nn1` the figure was over 150 µM; with `Cc1ccc(-c2cn(CC(=O)c3ccc(Cl)cc3)nn2)cc1`, 109 µM.

Compound `O=C1CCCC1n1cc(-c2ccc(F)cc2)nn1` (configuration not stated) had an inhibition in experiment [2] of under 10%.

`O=C1CCCCC1n1cc(-c2ccsc2)nn1` (configuration not stated) returned an inhibition in experiment [2] of under 10%. In turn, `O=C(Cn1cc(-c2ccccc2)nn1)c1ccc(-c2cc3ccccc3oc2=O)cc1` yielded a 50% inhibitory concentration (IC50) in experiment [1] of 89.5 µM. In experiment [2], `CCCCc1cn(CC(=O)c2ccc(Br)cc2)nn1` had an inhibition of under 10%. The compound `CC(=O)Cn1cc(-c2ccccc2)nn1` returned an IC50 in experiment [1] of over 150 µM.

On to `O=C1CCCCC1n1cc(-c2ccccc2)nn1` (configuration not stated), for which the IC50 in experiment [1] stood at 43.2 µM.

For `COC(=O)Cn1cc(-c2ccccc2)nn1`, the half-inhibitory concentration (IC50) in experiment [1] is over 100 µM. The same measure, in the same setting: for `O=C1CCCC1n1cc(-c2ccccc2)nn1` (configuration not stated) the value was 106 µM. In experiment [2], `O=C(Cn1cc(-c2ccc(F)cc2)nn1)c1ccc(Br)cc1` returned an inhibition of under 10%. In experiment [1], `COc1ccc(C(=O)Cn2cc(-c3ccccc3)nn2)cc1` returned a half-inhibitory concentration (IC50) of over 100 µM.

Turning to `O=C(Cn1cc(-c2ccccn2)nn1)c1ccccc1`, the inhibition in experiment [2] is under 10%. Take `COc1ccc(C(=O)Cn2cc(-c3cccc(C)c3)nn2)cc1`: half-maximal inhibition in experiment [1] (IC50) required 72.8 µM. That is a double-digit micromolar value.

In experiment [2], `CCCCc1cn(CC(=O)c2ccccc2)nn1` had an inhibition of under 10%. On to `O=C(Cn1cc(-c2ccccc2)nn1)c1ccc(Cl)cc1`, for which inhibition in experiment [1] was half-maximal at 139 µM (IC50).

Compound `Cc1ccc(-c2cn(CC(=O)c3cc4ccccc4oc3=O)nn2)cc1` registered an IC50 in experiment [1] of over 150 µM.
